Earlier results, collected in PMC4131438 (ACS chemical biology, 2014).

Experiments:
[1] = BIM BH3 aa 146-166 template, staple at R154/E158 i, i+4

Row | binding to full-length BAX (pro-apoptotic BAX; aa 145-164 constructs) | binding to pro-apoptotic BAX (pro-apoptotic BAX; fluorescence polarization binding assays, aa 146-166 constructs) | Substance | α-helical content in solution [1]
1 | negligible binding | – | BIM BH3 peptide (aa 145-164): unmodified BIM BH3 peptide composed of amino acids 145-164 | –
2 | – | no detectable BAX interaction | BIM BH3 peptide (aa 146-166): unmodified BIM BH3 peptide, amino acids 146-166 | 20%
